Data taken from the supplement of paper PMC10331698.
± gives the standard deviation of the averaged measurements.

Columns and labels:
Test in all cases: LOEC (log10 uM (lowest observed effect concentration))
[1] = compound: C=CC(=O)OCC(F)(F)C(F)(F)C(F)(F)C(F)(F)COC(=O)C=C [1H,1H,6H,6H-Perfluorohexane-1,6-diol diacrylate]
Procedure: (§1)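 BioMAP Diversity Plus panel in human primary cell co-cultures, 4 concentrations in duplicate blinded samples. Responses are log10 fold change versus DMSO control, processed with tcpl v2.1.0. A hit is called when responses at any concentration exceed the cutoff (the larger of 3*bmad or log10(1.2)); the lowest observed effect concentration (modl_ga, log10 uM) is reported for hits.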

[2] = compound: Cc1ccc(S(=O)(=O)OCC(F)(F)C(F)(F)C(F)(F)C(F)(F)C(F)(F)C(F)F)cc1 [1H,1H,7H-Perfluoroheptyl 4-methylbenzenesulfonate]
Procedure: as §1

[3] = compound: FC(F)(I)C(F)(F)C(F)(F)C(F)(F)C(F)(F)C(F)(F)I [1,6-Diiodoperfluorohexane]
Procedure: as §1

[4] = compound: O=C(CC(=O)C(F)(F)C(F)(F)C(F)(F)F)c1cccs1 [(Perfluorobutyryl)-2-thenoylmethane]
Procedure: as §1

Perfluorooctanoic acid = compound: O=C(O)C(F)(F)C(F)(F)C(F)(F)C(F)(F)C(F)(F)C(F)(F)C(F)(F)F [Perfluorooctanoic acid]
Procedure: as §1

Perfluoropinacol = compound: OC(C(F)(F)F)(C(F)(F)F)C(O)(C(F)(F)F)C(F)(F)F [Perfluoropinacol]
Procedure: as §1

[5] = compound: OCC(F)(F)C(F)(F)C(F)(F)C(F)(F)C(F)(F)C(F)(F)C(F)(F)C(F)(F)CO [1H,1H,10H,10H-Perfluorodecane-1,10-diol]
Procedure: as §1

[6] = compound: OCCC(F)(F)C(F)(F)C(F)(F)C(F)(F)C(F)(F)C(F)(F)C(F)(F)C(F)(F)F [8:2 Fluorotelomer alcohol]
Procedure: as §1

[7] = compound: OCCCC(F)(F)C(F)(F)C(F)(F)C(F)(F)C(F)(F)C(F)(F)C(F)(F)C(F)(F)F [3-(Perfluorooctyl)propanol]
Procedure: as §1

[8] = compound: C=CC(=O)OCC(F)(F)C(F)(F)C(F)(F)C(F)(F)C(F)(F)C(F)(F)C(F)(F)C(F)F [1H,1H,9H-Perfluorononyl acrylate]
Procedure: as §1

[9] = compound: OCC(F)(F)C(F)(F)C(F)(F)C(F)(F)C(F)(F)C(F)(F)C(F)(F)C(F)(F)C(F)(F)C(F)(F)C(F)(F)F [11:1 Fluorotelomer alcohol]
Procedure: as §1

[10] = compound: OCC(F)(F)C(F)(F)C(F)(F)C(F)(F)C(F)(F)C(F)(F)F [6:1 Fluorotelomer alcohol]
Procedure: as §1

[11] = compound: FC(F)(F)C(F)(F)C(F)(F)C(F)(F)CCI [1H,1H,2H,2H-Perfluorohexyl iodide]
Procedure: as §1

Test System	LOEC (log10 uM) [1]	LOEC (log10 uM) [2]	LOEC (log10 uM) [3]	LOEC (log10 uM) [4]	LOEC (log10 uM) (Perfluorooctanoic acid)	LOEC (log10 uM) (Perfluoropinacol)	LOEC (log10 uM) [5]	LOEC (log10 uM) [6]	LOEC (log10 uM) [7]	LOEC (log10 uM) [8]	LOEC (log10 uM) [9]	LOEC (log10 uM) [10]	LOEC (log10 uM) [11]
IMphg IL10 down	1.3	1.07 ± 0.32	0.845	1.3	1.78	1.3	1.54 ± 0.34	1.07 ± 0.32	1.3				
MyoF VCAM1 down	0.845		0.573 ± 0.39			1.78	1.78	1.3	1.07 ± 0.32	1.78			
BE3C ITAC down	1.78		1.54 ± 0.34	1.3		1.78	1.3	1.3	1.78				
BF4T Eotaxin3 down	1.78		1.3	0.845		1.3	1.78	1.3	1.54 ± 0.34				
BF4T tPA down	1.3		0.845	0.573 ± 0.39	1.31 ± 0.66		1.3	1.07 ± 0.32	1.3				
BF4T VCAM1 down	0.845		1.3	1.3		1.78	1.3	1.07 ± 0.32	1.3				
BE3C PAI1 down			1.54 ± 0.34	0.301		1.07 ± 0.32	1.78	1.3	1.78				
BT xIL2 down	0.845		1.54 ± 0.34	1.78		1.78	1.78	1.3	1.78				
MyoF CollagenIII down	1.3		0.845	1.3		1.3	1.78	1.3	1.3	1.78			
KF3CT TIMP2 down	1.07 ± 0.32		1.07 ± 0.32			1.78	1.78	1.3	1.3				
BE3C EGFR down	1.54 ± 0.34		1.78	1.31 ± 0.66			1.78		1.78				
hDFCGF EGFR down						1.54 ± 0.34	1.78	1.54 ± 0.34	0.845				
BT xIL17A down	0.845		1.78	1.3		1.3	1.78	1.78	1.3	1.54 ± 0.34			
hDFCGF CollagenIII up											-0.699		
4H Pselectin down	1.07 ± 0.32		1.3	1.3		1.3		1.3	1.3			1.78	
SAg PBMCCytotoxicity down	1.07 ± 0.32		1.3	1.78			1.78	1.3	1.3	1.54 ± 0.34	-1.22		
4H VCAM1 down	1.3		1.3	1.3		1.3	1.78	1.54 ± 0.34	1.54 ± 0.34				

Test System	LOEC (log10 uM) [1]	LOEC (log10 uM) [2]	LOEC (log10 uM) [3]	LOEC (log10 uM) [4]	LOEC (log10 uM) (Perfluorooctanoic acid)	LOEC (log10 uM) (Perfluoropinacol)	LOEC (log10 uM) [5]	LOEC (log10 uM) [6]	LOEC (log10 uM) [7]	LOEC (log10 uM) [8]	LOEC (log10 uM) [9]	LOEC (log10 uM) [10]	LOEC (log10 uM) [11]
BT PBMCCytotoxicity down	0.845		1.78	1.78		1.78	1.78	1.54 ± 0.34	1.54 ± 0.34	1.3	-0.199 ± 0.71		
IMphg MCSF down	1.54 ± 0.34		1.78			1.54 ± 0.34	1.78	1.78	1.78				
KF3CT PAI1 down	1.3		0.845			1.78	1.78	1.3	1.07 ± 0.32				
IMphg CD40 down	1.3		1.3	1.3		1.3	1.54 ± 0.34	1.78	1.3		0.301		
IMphg ESelectin down	1.3		1.3	1.07 ± 0.32		1.3	1.54 ± 0.34	1.78	1.07 ± 0.32				
hDFCGF TIMP2 down	1.07 ± 0.32			1.07 ± 0.32		1.3		0.801 ± 0.71	1.3				1.78
KF3CT SRB down	1.78		1.07 ± 0.32			1.78	1.78	1.3	1.3				
3C SRB down	1.3	1.78	1.3	1.3		1.3		1.3	1.3		-0.222		
hDFCGF MMP1 down	1.3		0.845	1.3			1.78	1.3	1.3				
BF4T SRB down			1.3	1.78			1.78	1.54 ± 0.34	1.3				
MyoF MMP1 up						1.78				1.78			
SAg CD40 down	1.07 ± 0.32		1.78	0.845		1.3		1.54 ± 0.34	1.54 ± 0.34	1.78			
BT xIL17F up											-1.22		
KF3CT MIG down	1.3		1.07 ± 0.32			1.78	1.78	1.54 ± 0.34	1.3				
IMphg CD69 down	1.78		1.78	0.845		1.07 ± 0.32	1.78	1.54 ± 0.34	1.78				
BE3C MMP9 down	1.54 ± 0.34		1.78	1.3		1.78	1.78	1.3	1.78		-0.222		
